Values quoted from earlier work in patent publication US20050227966A1 (Wyeth, priority 2004, published 2005).

Experiments:
[1] = test system: ovariectomized rat model of osteopenia
[2] = test system: MCF-7 cell line (human breast cancer cell line); conditions: MCF-7 cells
[3] = test system: uterine response; conditions: preclinical models of uterine stimulation

Cc1c(-c2ccc(O)cc2)n(Cc2ccc(OCCN3CCCCCC3)cc2)c2ccc(O)cc12 [bazedoxifene acetate, 1-[4-(2-azepan-1-yl-ethoxy)-benzyl]-2-(4-hydroxy-phenyl)-3-methyl-1H-indol-5-ol acetic acid]
effect in preventing bone loss and reducing cholesterol [1]: estrogen agonist-like effect
estrogen agonist/antagonist behaviour [2]: estrogen antagonist
stimulation of uterine response [3]: little or no stimulation
